# Results: article PMC10630452, “The tumor-enriched small molecule gambogic amide suppresses glioma by targeting WDR1-dependent cytoskeleton remodeling” (Signal Transduction and Targeted Therapy, 2023)
# Columns and labels:
# [1] = Acute toxicity assay, blood routine examination; assay type: in vivo, mice; conditions: for #Retic (Reticulocyte) / CH (corpuscular hemoglobin) / CHCM (Cellular Hemoglobin Concentration Mean) / CHDW (Cell hemoglobin distribution width) / HCT (Hematocrit) / HDW (Hemoglobin Distribution Width) / HGB (Hemoglobin) / MCH (Mean Corpuscular Hemoglobin) / MCHC (Mean corpuscular hemoglobin concentration) / MCV (Mean Corpuscular Volume) / MPV (Mean platelet volume) / PCT (Plateletocrit) / PDW (Platelet distribution width) / PLT (Platelet) / RBC (Red Blood Cell) / RDW (red blood cell volume distribution width) / WBC (White Blood Cell): mice
# infarct = conditions: subcutaneous injection of 2 mg/kg; cited from earlier work
# PDCs = test: Apoptosis assay (annexin V/PI flow cytometry); assay type: cell-based, human; conditions: 4 h, varying concentrations
# Experimental: An apoptosis detection kit (KeyGEN BioTECH) was used for the PDC apoptosis assay. After treatment with different concentrations of GA-amide, cells were collected and resuspended in 100 µL of binding buffer with 1 µl FITC Annexin V and 1 µl PI for 15 min at room temperature in the dark. The cell suspensions were analyzed by flow cytometry within 1 h.
# [2] = tested on: primary brain tumor (H-RasV12 activated, p53 silenced); test: Transgenic mouse glioma model (pTomo-Ras-sip53 lentivirus); assay type: in vivo, C57BL/6 mice; conditions: 1 mg/kg i.v. daily for 11 days
# Experimental: (§1) Fig. 3 The inhibitory effects of GA-amide in glioma stem cell-derived mouse models and transgenic mouse models. a, b GSC2 cells were implanted s.c. into nude mice. Mice were treated with control (DMSO) (n = 7) or GA-amide (2 mg/kg) (n = 8) via i.p. injection once daily for 11 days, after which a photograph (a) was taken to show the tumor volume, and the tumor volume was calculated by a modified ellipsoid formula in (b). c, d GSC2 cells were implanted intracranially into nude mice. Mice were injected i.v. with control (n = 8) or 1 mg/kg GA-amide (n = 8) daily for 13 days, the Mantel‒Cox log–rank test was used for analysis, and the relative survival curves are shown in (c). The body weights are shown in (d). e In vivo efficacy studies of GA-amide using transgenic mouse models. Glioma was induced in transgenic C57BL/6 mice by injection of pTomo-Ras-sip53 lentivirus, and the strategy is shown. f, g MRI analysis was used to group mice into the control (n = 7) and GA-amide-treated groups (n = 8) before treatment. The statistical results are shown in (f), and representative MRI images are shown in (g). […]
# [3] = Acute toxicity assay, mice serum biochemical indexes; assay type: in vivo
# [4] = tested on: GSC2 subcutaneous xenograft; test: GSC2-derived subcutaneous xenograft model; assay type: in vivo, nude mice; conditions: 2 mg/kg i.p. once daily for 11 days
# Experimental: as §1
smiles,measurement,setting,value
"CC(C)=CCC[C@]1(C)C=Cc2c(O)c3c(c(CC=C(C)C)c2O1)O[C@]12C(=C[C@@H]4CC1C(C)(C)O[C@@]2(C/C=C(/C)C(N)=O)C4=O)C3=O [GA-amide, gambogic amide]",routine blood parameters and serum biochemical analytes versus control,"[1]; 1 mg/kg and 10 mg/kg, one-time i.v., ALT and Cl fluctuated",no significant differences in routine blood parameters and most analytes evaluated in biochemical analysis of mouse serum
same,#Retic (Reticulocyte),[1]; 1mg/kg one-time i.v.,335.1±72.9 ×109cells/L
same,CH (corpuscular hemoglobin),[1]; 1mg/kg one-time i.v.,16.8 ± 0.5 pg
same,CHCM (Cellular Hemoglobin Concentration Mean),[1]; 1mg/kg one-time i.v.,35.7 ± 0.8 g/dL
same,CHDW (Cell hemoglobin distribution width),[1]; 1mg/kg one-time i.v.,3.00±0.39%
same,HCT (Hematocrit),[1]; 1mg/kg one-time i.v.,42.8±7.5%
same,HDW (Hemoglobin Distribution Width),[1]; 1mg/kg one-time i.v.,2.66 ± 0.20 g/dL
same,HGB (Hemoglobin),[1]; 1mg/kg one-time i.v.,13.0 ± 0.7 g/dL
same,MCH (Mean Corpuscular Hemoglobin),[1]; 1mg/kg one-time i.v.,14.5 ± 1.7 pg
same,MCHC (Mean corpuscular hemoglobin concentration),[1]; 1mg/kg one-time i.v.,31.0 ± 3.9 g/dL
same,MCV (Mean Corpuscular Volume),[1]; 1mg/kg one-time i.v.,47.0 ± 1.8 fL
same,MPV (Mean platelet volume),[1]; 1mg/kg one-time i.v.,8.3 ± 0.3 fL
same,PCT (Plateletocrit),[1]; 1mg/kg one-time i.v.,1.33±0.30%
same,PDW (Platelet distribution width),[1]; 1mg/kg one-time i.v.,48.8±2.5%
same,PLT (Platelet),[1]; 1mg/kg one-time i.v.,1603±310 ×103cells/μL
same,RBC (Red Blood Cell),[1]; 1mg/kg one-time i.v.,9.09±1.40 ×106cells/μL
same,RDW (red blood cell volume distribution width),[1]; 1mg/kg one-time i.v.,16.5±1.2%
same,WBC (White Blood Cell),[1]; 1mg/kg one-time i.v.,4.78±1.34 ×103cells/μL
same,#Retic (Reticulocyte),[1]; 10mg/kg one-time i.v.,836.7±674.4 ×109cells/L
same,CH (corpuscular hemoglobin),[1]; 10mg/kg one-time i.v.,17.0 ± 0.5 pg
same,CHCM (Cellular Hemoglobin Concentration Mean),[1]; 10mg/kg one-time i.v.,35.4 ± 1.3 g/dL
same,CHDW (Cell hemoglobin distribution width),[1]; 10mg/kg one-time i.v.,3.15±0.11%
same,HCT (Hematocrit),[1]; 10mg/kg one-time i.v.,48.5±5.1%
same,HDW (Hemoglobin Distribution Width),[1]; 10mg/kg one-time i.v.,2.71 ± 0.10 g/dL
same,HGB (Hemoglobin),[1]; 10mg/kg one-time i.v.,13.6 ± 0.5 g/dL
same,MCH (Mean Corpuscular Hemoglobin),[1]; 10mg/kg one-time i.v.,13.6 ± 1.8 pg
same,MCHC (Mean corpuscular hemoglobin concentration),[1]; 10mg/kg one-time i.v.,28.4 ± 3.8 g/dL
same,MCV (Mean Corpuscular Volume),[1]; 10mg/kg one-time i.v.,47.8 ± 1.1 fL
same,MPV (Mean platelet volume),[1]; 10mg/kg one-time i.v.,8.4 ± 0.2 fL
same,PCT (Plateletocrit),[1]; 10mg/kg one-time i.v.,1.63±0.60%
same,PDW (Platelet distribution width),[1]; 10mg/kg one-time i.v.,49.9±2.3%
same,PLT (Platelet),[1]; 10mg/kg one-time i.v.,1936±670 ×103cells/μL
same,RBC (Red Blood Cell),[1]; 10mg/kg one-time i.v.,10.13±1.05 ×106cells/μL
same,RDW (red blood cell volume distribution width),[1]; 10mg/kg one-time i.v.,17.0±0.6%
same,WBC (White Blood Cell),[1]; 10mg/kg one-time i.v.,4.38±0.95 ×103cells/μL
same,infarct volume,infarct,significantly reduce the infarct volume
same,apoptosis (annexin V/PI),PDCs,significantly induced the apoptosis of PDCs in a dose-dependent manner
same,Ki67 and CD133 expression in tumor sections,[2],lower expression of the proliferation marker Ki67
same,tumor size by MRI versus control,[2],significantly smaller compared to the control mice
same,ALB (albumin),[3]; 1mg/kg one-time i.v.,19.5 ± 2.4 g/L
same,ALP (alkaline phosphatase),[3]; 1mg/kg one-time i.v.,214±36 U/L
same,ALT (alanine aminotransferase),[3]; 1mg/kg one-time i.v.,26±2 U/L
same,AST (aspartate aminotransferase),[3]; 1mg/kg one-time i.v.,99±20 U/L
same,CA (calcium),[3]; 1mg/kg one-time i.v.,2.53 ± 0.12 mmol/L
same,CHE (cholinesterase),[3]; 1mg/kg one-time i.v.,7909±1092 U/L
same,CK (creatine kinase),[3]; 1mg/kg one-time i.v.,910±503 U/L
same,CRE (creatinine),[3]; 1mg/kg one-time i.v.,11.1 ± 1.1 µmol/L
same,Cl,[3]; 1mg/kg one-time i.v.,112.0 ± 2.2 mmol/L
same,GGT (Gammagliutamyltranspherase),[3]; 1mg/kg one-time i.v.,-1±1 U/L
same,GLU (glucose),[3]; 1mg/kg one-time i.v.,8.21 ± 3.50 mmol/L
same,K,[3]; 1mg/kg one-time i.v.,5.99 ± 0.84 mmol/L
same,NA,[3]; 1mg/kg one-time i.v.,147.4 ± 1.5 mmol/L
same,TBA (total bile acid),[3]; 1mg/kg one-time i.v.,8.6 ± 6.4 µmol/L
same,TBIL (total bilirubin),[3]; 1mg/kg one-time i.v.,3.3 ± 0.5 µmol/L
same,TCHO (total cholesterol),[3]; 1mg/kg one-time i.v.,4.34 ± 1.10 mmol/L
same,TG (triglyceride),[3]; 1mg/kg one-time i.v.,1.30 ± 0.29 mmol/L
same,TP (total protein),[3]; 1mg/kg one-time i.v.,54.5 ± 6.7 g/L
same,UREA,[3]; 1mg/kg one-time i.v.,8.11 ± 1.58 mmol/L
same,ALB (albumin),[3]; 10mg/kg one-time i.v.,20.0 ± 0.9 g/L
same,ALP (alkaline phosphatase),[3]; 10mg/kg one-time i.v.,217±33 U/L
same,ALT (alanine aminotransferase),[3]; 10mg/kg one-time i.v.,37±12 U/L
same,AST (aspartate aminotransferase),[3]; 10mg/kg one-time i.v.,113±22 U/L
same,CA (calcium),[3]; 10mg/kg one-time i.v.,2.54 ± 0.07 mmol/L
same,CHE (cholinesterase),[3]; 10mg/kg one-time i.v.,7828±721 U/L
same,CK (creatine kinase),[3]; 10mg/kg one-time i.v.,1157±539 U/L
same,CRE (creatinine),[3]; 10mg/kg one-time i.v.,10.9 ± 0.6 µmol/L
same,Cl,[3]; 10mg/kg one-time i.v.,111.5 ± 1.7 mmol/L
same,GGT (Gammagliutamyltranspherase),[3]; 10mg/kg one-time i.v.,-1±1 U/L
same,GLU (glucose),[3]; 10mg/kg one-time i.v.,5.61 ± 0.60 mmol/L
same,K,[3]; 10mg/kg one-time i.v.,5.97 ± 0.33 mmol/L
same,NA,[3]; 10mg/kg one-time i.v.,147.7 ± 2.0 mmol/L
same,TBA (total bile acid),[3]; 10mg/kg one-time i.v.,7.9 ± 4.5 µmol/L
same,TBIL (total bilirubin),[3]; 10mg/kg one-time i.v.,3.8 ± 1.0 µmol/L
same,TCHO (total cholesterol),[3]; 10mg/kg one-time i.v.,4.75 ± 0.93 mmol/L
same,TG (triglyceride),[3]; 10mg/kg one-time i.v.,1.62 ± 0.48 mmol/L
same,TP (total protein),[3]; 10mg/kg one-time i.v.,55.5 ± 1.8 g/L
same,UREA,[3]; 10mg/kg one-time i.v.,8.62 ± 1.32 mmol/L
same,tumor growth,[4],significantly inhibited the growth of tumors
